Usually EC50 stands for the concentration giving half of the maximal effect.

Each structure is given as a SMILES string.

This passage reports EC50 results from patent US10889565B2, “4-hydroxy-3-sulfonylpyridin-2(1H)-ones as APJ receptor agonists” (BRISTOL-MYERS SQUIBB COMPANY, priority 2016, dated 2021).

For the assay, the target named is T1, human APJ receptor (Homo sapiens, UniProt P35414).
T1 construct: expressed in transfected cells
T1 sequence (P35414 1-380): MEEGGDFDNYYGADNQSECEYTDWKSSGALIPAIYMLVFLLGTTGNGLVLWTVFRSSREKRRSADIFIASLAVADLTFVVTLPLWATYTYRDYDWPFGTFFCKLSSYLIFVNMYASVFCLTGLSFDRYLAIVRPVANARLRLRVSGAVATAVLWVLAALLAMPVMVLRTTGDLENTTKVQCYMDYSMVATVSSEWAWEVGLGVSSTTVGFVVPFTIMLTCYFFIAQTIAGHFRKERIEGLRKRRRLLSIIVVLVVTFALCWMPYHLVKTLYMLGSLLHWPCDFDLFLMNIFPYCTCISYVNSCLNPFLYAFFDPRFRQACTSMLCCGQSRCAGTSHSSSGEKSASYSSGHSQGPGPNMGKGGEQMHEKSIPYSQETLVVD
Kind of assay: Intracellular cAMP accumulation assay (APJ hcAMP, HTRF). It is filed as cell-based. The note with it: HEK293 cells stably expressing human APJ receptor; inhibition of forskolin-mediated cAMP production; read-out: Human APJ cAMP EC50 Potency range. As to the method: Intracellular cAMP Accumulation Assay
HEK293 cells stably expressing human APJ receptor were used to assess the activity of compounds. Cultured cells were detached and resuspended in the cAMP Homogeneous Time-Resolved Fluorescence (HTRF) assay buffer (Cisbio cat; #62AM4PEJ). The assay was performed in 384-well assay plates (Perkin-Elmer; cat #6008289) according to assay protocol provided by the manufacturer. Serial dilutions of a compound together with assay buffer containing […] IBMX and 2 μM forskolin were added to each well containing 5,000 cells and incubated for 30 minutes at room temperature. Subsequently, cAMP D2 reagent was added in the lysis buffer followed by the EuK antibody (Cisbio; cat #62AM4PEJ) and incubated for 60 min. The fluorescence emission ratio was measured using fluorometer. The intracellular cAMP concentrations (compound-stimulated inhibition of forskolin-mediated cAMP production) were calculated by extrapolation from a standard curve using known cAMP concentrations. The EC50 values were obtained by fitting the data to a sigmoidal concentration-response curve with variable slope. The maximal achievable inhibition of forskolin-induced cAMP levels (Ymax) for each compound was expressed as relative percentage of inhibition attained using pyroglutamated apelin-13 ((Pyr1)apelin-13) peptide, which was set to 100%.
The examples disclosed below were tested in the APJ in vitro assays described above and were found having human APJ cyclic AMP (hcAMP) activity. The EC50 value of each compound is presented at the end of the example description.
The biological activity of the exemplified compounds of this invention determined by the assay described above is shown at the end of each example.
(Changes in cAMP serve as a functional read-out for many G protein-coupled receptors.)
On to `CCCCc1[nH]c(=O)c(S(=O)(=O)c2ccc(C)cn2)c(O)c1-c1c(OC)cccc1OC` [Example 39, 6-butyl-5-(2,6-dimethoxy-phenyl)-4-hydroxy-3-((5-methyl-pyridin-2-yl)sulfonyl) pyridin-2(1H)-one], for which the concentration for a half-maximal effect (EC50) lay within 0.01 to 10 nM. For `CCCCc1[nH]c(=O)c(S(=O)(=O)c2ccc(NC(=O)c3ccc(F)cc3)cc2)c(O)c1-c1c(OC)cccc1OC` [Example 30, N-(4-((6-butyl-5-(2,6-dimethoxyphenyl)-4-hydroxy-2-oxo-1,2-dihydropyridin-3-yl)sulfonyl)phenyl)-4-fluorobenzamide], the EC50 lay within 0.01 to 10 nM. Regarding `CCCCc1[nH]c(=O)c(S(=O)(=O)c2ccc(C3CC3)cc2)c(O)c1-c1c(OC)cccc1OC` [Example 7, 6-butyl-3-((4-cyclo-propylphenyl)sulfonyl)-5-(2,6-dimethoxy-phenyl)-4-hydroxy-pyridin-2(1H)-one], the EC50 is 0.01 to 10 nM. With `CCOCc1[nH]c(=O)c(S(=O)(=O)c2ccc(-n3cc(C)ccc3=O)cc2)c(O)c1-c1c(OC)cccc1OC` [Example 24, 5-(2,6-dimethoxy-phenyl)-6-(ethoxymethyl)-4-hydroxy-3-((4-(5-methyl-2-oxopyridin-1(2H)-yl)phenyl)sulfonyl) pyridin-2(1H)-one], the EC50 fell in the range of 0.01 to 10 nM.

Consider `COc1cccc(OC)c1-c1c(-c2ccc(F)cc2)[nH]c(=O)c(S(=O)(=O)c2ccc(-c3ccc(F)nc3C)cc2)c1O` [Example 17, 5-(2,6-dimethoxy-phenyl)-3-((4-(6-fluoro-2-methyl-pyridin-3-yl)phenyl)sulfonyl)-6-(4-fluoro-phenyl)-4-hydroxy-pyridin-2(1H)-one], for which the EC50 fell in the range of 0.01 to 10 nM. In the case of `CCCCc1[nH]c(=O)c(S(=O)(=O)c2nnc[nH]2)c(O)c1-c1c(OC)cccc1OC` [Example 48, 3-((4H-1,2,4-triazol-3-yl)sulfonyl)-6-butyl-5-(2,6-dimethoxy-phenyl)-4-hydroxy-pyridin-2(1H)-one], the EC50 was 10 to 100 nM.

As for `CCCCc1[nH]c(=O)c(S(=O)(=O)c2ccccc2)c(O)c1-c1c(OC)cccc1OC` [Example 10, 6-butyl-5-(2,6-dimethoxy-phenyl)-4-hydroxy-3-(phenyl-sulfonyl) pyridin-2(1H)-one], the EC50 fell in the range of 0.01 to 10 nM. `CCCCc1[nH]c(=O)c(S(=O)(=O)c2ccc(-c3ccnc(N4CCOCC4)c3F)cn2)c(O)c1-c1c(OC)cccc1OC` [Example 40, 6-butyl-5-(2,6-dimethoxy-phenyl)-3-((3′-fluoro-2′-morpholino-[3,4′-bipyridin]-6-yl)sulfonyl)-4-hydroxypyridin-2(1H)-one]: the EC50 fell in the range of 0.01 to 10 nM. For `CCCCc1[nH]c(=O)c(S(=O)(=O)c2cccc[n+]2[O-])c(O)c1-c1c(OC)cccc1OC` [Example 18, 6-butyl-5-(2,6-dimethoxy-phenyl)-4-hydroxy-3-((1-hydroxy-1l4-pyridin-2-yl)sulfonyl) pyridin-2(1H)-one] the value was 100 to 300 nM; for `CCCCc1[nH]c(=O)c(S(=O)(=O)c2ccc(N)cc2)c(O)c1-c1c(OC)cccc1OC` [Example 27, 3-((4-aminophenyl)sulfonyl)-6-butyl-5-(2,6-dimethoxyphenyl)-4-hydroxypyridin-2(1H)-one], 0.01 to 10 nM. Regarding `CCCCc1[nH]c(=O)c(S(=O)(=O)c2ccc(Nc3ccc(F)nc3)cc2)c(O)c1-c1c(OC)cccc1OC` [Example 28, 6-butyl-5-(2,6-dimethoxyphenyl)-3-((4-((6-fluoropyridin-3-yl)amino)phenyl)sulfonyl)-4-hydroxypyridin-2(1H)-one], the EC50 is 0.01 to 10 nM. Regarding `CCCCc1[nH]c(=O)c(S(=O)(=O)c2ccc(-c3ccc(F)nc3)cn2)c(O)c1-c1c(OC)cccc1OC` [Example 42, 6-butyl-5-(2,6-dimethoxy-phenyl)-3-((6′-fluoro-[3,3′-bipyridin]-6-yl)sulfonyl)-4-hydroxypyridin-2(1H)-one], the EC50 is 0.01 to 10 nM. `CCCCc1[nH]c(=O)c(S(=O)(=O)c2ccc(C(C)C)cn2)c(O)c1-c1c(OC)cccc1OC` [Example 50, 6-Butyl-5-(2,6-dimethoxyphenyl)-4-hydroxy-3-((5-isopropylpyridin-2-yl)sulfonyl)pyridin-2(1H)-one]: the EC50 was in the range of 0.01 to 10 nM.

Regarding `CCOCc1[nH]c(=O)c(S(=O)(=O)c2ccc(Br)cc2)c(O)c1-c1c(OC)cccc1OC` [Example 14, 3-((4-bromophenyl)sulfonyl)-5-(2,6-dimethoxy-phenyl)-6-(ethoxymethyl)-4-hydroxy-pyridin-2(1H)-one], the EC50 was 10 to 100 nM. Turning to `CCCCc1[nH]c(=O)c(S(=O)(=O)c2ccc(C3CC3)cn2)c(O)c1-c1c(OC)cccc1OC` [Example 51, 6-Butyl-3-((5-cyclopropylpyridin-2-yl)sulfonyl)-5-(2,6-dimethoxyphenyl)-4-hydroxypyridin-2(1H)-one], the EC50 fell in the range of 0.01 to 10 nM.

For `CCCCc1[nH]c(=O)c(S(=O)(=O)c2ccc(-c3ccc(F)cc3)cn2)c(O)c1-c1c(OC)cccc1OC` [Example 43, 6-butyl-5-(2,6-dimethoxy-phenyl)-3-((5-(4-fluorophenyl)pyridin-2-yl)sulfonyl)-4-hydroxypyridin-2(1H)-one], the EC50 lay within 0.01 to 10 nM. The value for `CCCCc1[nH]c(=O)c(S(=O)(=O)c2ccc(-n3ccccc3=O)cc2)c(O)c1-c1c(OC)cccc1OC` [Example 22, 6-butyl-5-(2,6-dimethoxy-phenyl)-4-hydroxy-3-((4-(2-oxopyridin-1(2H)-yl)phenyl)sulfonyl) pyridin-2(1H)-one] was 0.01 to 10 nM; that for `CCCCc1[nH]c(=O)c(S(=O)(=O)c2ccccn2)c(O)c1-c1c(OC)cccc1OC` [Example 46, 6-butyl-5-(2,6-dimethoxy-phenyl)-4-hydroxy-3-(pyridin-2-ylsulfonyl) pyridin-2(1H)-one] was 0.01 to 10 nM; that for `CCCCc1[nH]c(=O)c(S(=O)(=O)c2ccc(-c3ccnc4[nH]ccc34)cn2)c(O)c1-c1c(OC)cccc1OC` [Example 47, 3-((5-(1H-pyrrolo[2,3-b]pyridin-4-yl)pyridin-2-yl)sulfonyl)-6-butyl-5-(2,6-dimethoxy-phenyl)-4-hydroxy-pyridin-2(1H)-one] was 0.01 to 10 nM. On to `CCOCc1[nH]c(=O)c(S(=O)(=O)c2ccc(-c3ccc(F)nc3)cc2)c(O)c1-c1c(OC)cccc1OC` [Example 12, 5-(2,6-dimethoxy-phenyl)-6-(ethoxymethyl)-3-((4-(6-fluoro-pyridin-3-yl)phenyl)sulfonyl)-4-hydroxy-pyridin-2(1H)-one], for which the EC50 is 0.01 to 10 nM. For the compound `CCCCc1[nH]c(=O)c(S(=O)(=O)c2ccc(-c3ccc(OC(F)(F)F)cc3)cn2)c(O)c1-c1c(OC)cccc1OC` [Example 35, 6-butyl-5-(2,6-dimethoxy-phenyl)-4-hydroxy-3-((5-(4-(trifluoro-methoxy)phenyl)pyridin-2-yl)sulfonyl) pyridin-2(1H)-one], the EC50 lay within 0.01 to 10 nM. As to `CCCCc1[nH]c(=O)c(S(=O)(=O)c2ccc(-c3ccc(F)nc3C)cn2)c(O)c1-c1c(OC)cccc1OC` [Example 41, 6-butyl-5-(2,6-dimethoxy-phenyl)-3-((6′-fluoro-2′-methyl-[3,3′-bipyridin]-6-yl)sulfonyl)-4-hydroxypyridin-2(1H)-one], the EC50 was in the range of 0.01 to 10 nM. With `CCOCc1[nH]c(=O)c(S(=O)(=O)c2ccc(-c3ccc(F)cc3)cc2)c(O)c1-c1c(OC)cccc1OC` [Example 9, 5-(2,6-dimethoxy-phenyl)-6-(ethoxymethyl)-3-((4′-fluoro-[1,1′-biphenyl]-4-yl)sulfonyl)-4-hydroxypyridin-2(1H)-one], the EC50 was in the range of 0.01 to 10 nM.

As for `CCCCc1[nH]c(=O)c(S(=O)(=O)c2ccc(-c3ccc(F)nc3)cc2)c(O)c1-c1c(OC)cccc1OC` [Example 6, 6-butyl-5-(2,6-dimethoxy-phenyl)-3-((4-(6-fluoro-pyridin-3-yl)phenyl)sulfonyl)-4-hydroxy-pyridin-2(1H)-one], the half-maximal effective concentration (EC50) was in the range of 0.01 to 10 nM. The value for `CCCCc1[nH]c(=O)c(S(=O)(=O)c2ccc(-c3ccccc3C)cn2)c(O)c1-c1c(OC)cccc1OC` [Example 37, 6-butyl-5-(2,6-dimethoxy-phenyl)-4-hydroxy-3-((5-(o-tolyl)pyridin-2-yl)sulfonyl) pyridin-2(1H)-one] was 0.01 to 10 nM.
